The record followed here is patent US6583283B1, “Polymorphic forms of cipamfylline” (SmithKline Beecham Corporation, priority 1997, dated 2003).

Common to all, as to format: physicochemical
The nature of data set [1]: Solubility in recrystallization solvents. Particulars: solvents marked with an asterisk, such as toluene or water.
A short description of data set [2]: Compression and grinding study. Particulars: for Stability to compression / Stability to grinding: polymorphic form followed by IR. Here is the method:
These spectra were recorded using a Spectra-Tech Plan II microscope coupled to a P-E 1760 FTIR spectrometer (64-256 scans, ratio mode, MCT detector, 4 cm^−1 resolution, dry air purge). Spectra of samples without sample preparation were obtained by mounting crystals on a diamond window. Crushed crystals were prepared using a Spectra-Tech micro-Sample Plan (a compression cell) fitted with diamond windows. A stereo microscope was used to observe the behavior of the crystals during compression. After compression, the diamond windows were separated and a spectrum was recorded of the material adhering to one of the windows.

Data set [3] in a line: Thermal analysis (thermomicroscopy, annealing). Particulars: for Polymorphic form after annealing (by IR): 10° C./min from ambient to ca. 250° C., held ½-1 hour, slow cooling to room temperature. Here is the method: Differential Scanning Calorimetry (DSC) could not differentiate the three forms of Cipamfylline. […] However, when the heating rate was reduced sufficiently, the melting endotherm appeared as a fused melt, i.e. two components melting. This behavior was common to both Forms I and II.
The onset of sublimation was different for each form and continued over a wide temperature range (130-290° C. on a non-calibrated instrument). This is not evident on the DSC thermograms. Melting occurred over a range (310-323° C. on a non-calibrated instrument) for all three forms. The possibility of two components melting consecutively could not be distinguished. The sublimate was collected for all three forms and analyzed by IR and NMR.
The annealing procedure consisted of heating at 10° C./min from ambient to ca. 250° C. and holding at this point for ½-1 hour, then allowing the sample to cool slowly to room temperature.
This could explain the similarity in melting points of the three forms.

The nature of data set [4]: Heats of solution in methanol and acetone. Particulars: for Heat of solution, Acetone / Heat of solution, Methanol: endothermic; for Heat of solution, Acetone: solvent acetone; for Heat of solution, Methanol: solvent methanol. How it is done:
Heats of solution were determined using acetone and methanol as suitable solvents. Different polymorphic forms give rise to different heats of solution. […] The value of HT, the heat of transition, is equal to the difference in crystal lattice energy of the two forms and is the same in both solvents. This is predicted since individual enthalpies are solvent dependent but difference are not. […] Heats of solution for Form IV are in progress.

A short description of data set [5]: Crystalline stability. As to conditions: Forms I, II and IV compared. An excerpt:
Form I is characterized by a minimum of five years crystalline stability.

`Nc1nc2c([nH]1)c(=O)n(CC1CC1)c(=O)n2CC1CC1` [Cipamfylline, 1,3-di-cyclopropylmethyl-8-amino xanthine]: the Solubility in solvent entry in data set [1] is on record as “particularly low solubility”.
On to `Nc1nc2c([nH]1)c(=O)n(CC1CC1)c(=O)n2CC1CC1` [Form II, 1,3-di-cyclopropylmethyl-8-amino xanthine], for which, in data set [2], the Stability to compression result is on record as “stable to compression” and the Stability to grinding result is listed as “not to severe grinding”. Moreover, the “Polymorphic form after annealing (by IR)” value in data set [3] was “converted to Form I”. Further, the “Relative stability suggested by heats of solution” value in data set [4] (Form I vs Form II, both solvents) is listed as “the more stable form”. Also, in data set [4] (listed as 2), the “Heat of solution, Acetone” value came to 5.59 kcal/mol and the “Heat of solution, Methanol” value was determined as 6.47 kcal/mol.
As to `Nc1nc2c([nH]1)c(=O)n(CC1CC1)c(=O)n2CC1CC1` [Form IV, 1,3-di-cyclopropylmethyl-8-amino xanthine], the “Polymorphic conversion under pressure” value in data set [2] (under pressure, under some circumstances) is on record as “convert to Form I”.
For `Nc1nc2c([nH]1)c(=O)n(CC1CC1)c(=O)n2CC1CC1` [Form I, 1,3-di-cyclopropylmethyl-8-amino xanthine], in data set [2], the Stability to compression entry is listed as “stable” and the Stability to grinding result is “stable”. For the same compound, in data set [5], the “Relative stability among the three polymorphs” value was “greatest stability”. Further, in data set [3], the “Relative stability indicated by thermal experiments” value is given as “the most stable form” and the “Polymorphic form after annealing (by IR)” value is “converted to Form I”. In data set [4] (listed as 1), the “Heat of solution, Acetone” value is listed as 3.93 kcal/mol and the “Heat of solution, Methanol” value stood at 4.81 kcal/mol.
